In US8853490B2 (priority 2010, dated 2014):
Like-named read-outs stand apart in the source and are kept apart here.

Assays:
[1] = test system: Fusarium graminearum (FGR; isolate 73B ISU); format: cell-based
[2] = test system: Fusarium verticillioides (FVE; isolate MO33); format: cell-based
[3] = test system: Diplodia maydis (DMA; isolate Warren-IN-96); format: cell-based
[4] = test system: Colletotrichum graminicola (CGR; isolate Carroll-IA-99); conditions: general statement on parent polypeptides; cited from earlier work
[5] = test system: Fusarium graminearum (FGR; isolate 73B ISU); conditions: general statement on parent polypeptides; cited from earlier work
[6] = test system: Fusarium verticillioides (FVE; isolate MO33); conditions: general statement on parent polypeptides; cited from earlier work
[7] = test system: Diplodia maydis (DMA; isolate Warren-IN-96); conditions: general statement on parent polypeptides; cited from earlier work
[8] = test system: Colletotrichum graminicola (CGR; isolate Carroll-IA-99); format: cell-based

| Substance | In vitro antifungal activity (IC50) against F. graminearum (FGR) ([1]; high salt conditions) | In vitro antifungal activity (IC50) against F. graminearum (FGR) ([1]; low salt conditions) | In vitro antifungal activity (IC50) against F. verticillioides (FVE) [2] | also measured |
| --- | --- | --- | --- | --- |
| LB-5220 (r2 5G7): LBNL variant generated through gene shuffling of the LB-5220 mature peptide coding sequence (LKYTGTCRRANNQCKYKGQNNRDTFVKCPTFANKKCTRDGAKCSFDSYSRAVTCD; Synthetic peptide LB-5220 (r2-5G7)) | >100 ppm | >10 ppm | – | – |
| LB-5220 (r2 6F2): LBNL variant generated through gene shuffling of the LB-5220 mature peptide coding sequence (LKYTGTCRRANNQCKYKGQNNRDTFVKCPTFANKKCTRDGEKCSFDSYSRAVTCD; LB-5220 (r2-6F2)) | >100 ppm | >10 ppm | – | – |
| LB-9827-3B-25F2: LBNL variant generated through gene shuffling of the LB-9827-1 mature peptide coding sequence (LSKYGGECSREHNTCTYLKGGKNQVVACGSAANKKCKRDRHHCEYDDYHKTVDCQTPV; Synthetic peptide LB-9827-3B-25F2) | 2.5 ppm | – | 15 ppm | – |
| LB-5220 (ps 1B4): LBNL variant generated through gene shuffling of the LB-5220 mature peptide coding sequence (LKYTGTCTRKNNQCKYRGQNNRDTFVKCPTFANKRCTRDGAPCSFDSYSRAVTCD; Synthetic peptide LB-5220 (ps-1B4)) | >100 ppm | >10 ppm | – | – |
| LB-9827-3B-25G5: LBNL variant generated through gene shuffling of the LB-9827-1 mature peptide coding sequence (LSKYGGECSRAHNTCTYRKGGKNQVVKCGTAANKKCKSDRHHCEYDDYHKRVDCQTPV; Synthetic peptide LB-9827-3B-25G5) | 2.5 ppm | – | 3.8 ppm | – |
| LB-5220: parent antifungal polypeptide isolated from Penicillium simplicissimum, previously disclosed in U.S. Pat. No. 7,306,946 (LKYTGTCTRANNQCKYKGQNDRDTFVKCPTFANKKCTRDGAPCSFDSYSRAVTCD; listed as Penicillium simplicissimum) [reference compound] | >100 ppm | >10 ppm | – | In vitro antifungal activity (IC50) against D. maydis (DMA) ([3]; high salt conditions): 50 ppm; In vitro antifungal activity (IC50) against D. maydis (DMA) ([3]; low salt conditions): <0.1 ppm; antifungal activity against Colletotrichum graminicola (CGR), in words [4]: exhibit antifungal activity; antifungal activity against Fusarium graminearum (FGR), in words [5]: exhibit antifungal activity; antifungal activity against Fusarium verticillioides (FVE), in words [6]: exhibit antifungal activity; antifungal activity against Diplodia maydis (DMA), in words [7]: exhibit antifungal activity |
| LB-9827-3A-11E4: LBNL variant generated through gene shuffling of the LB-9827-1 mature peptide coding sequence (LSKYGGECSRKHNTCTYKKGGKNQIVNCPTAANKRCKTDRHHCEYDEYHRRVDCQTPV; LB-9827-3A-11E4) | 0.63 ppm | – | 15 ppm | – |
| LB-9827-1: parent antifungal polypeptide from the fungus Monascus ruber, previously disclosed in U.S. Pat. No. 7,306,946 (LSKFGGECSLKHNTCTYLKGGKNHVVNCGSAANKKCKSDRHHCEYDEHHKRVDCQTPV; Monascus ruber) [reference compound] | 1.5 ppm | <0.1 ppm | – | In vitro antifungal activity (IC50) against C. graminicola (CGR) ([8]; high salt conditions): 3 ppm; In vitro antifungal activity (IC50) against C. graminicola (CGR) ([8]; low salt conditions): 1.5 ppm; In vitro antifungal activity (IC50) against D. maydis (DMA) ([3]; high salt conditions): 12 ppm; In vitro antifungal activity (IC50) against D. maydis (DMA) ([3]; low salt conditions): 1.5 ppm; antifungal activity against Colletotrichum graminicola (CGR), in words [4]: exhibit antifungal activity; antifungal activity against Fusarium graminearum (FGR), in words [5]: exhibit antifungal activity; antifungal activity against Fusarium verticillioides (FVE), in words [6]: exhibit antifungal activity; antifungal activity against Diplodia maydis (DMA), in words [7]: exhibit antifungal activity |
| LB-9827-3B-21E10: LBNL variant generated through gene shuffling of the LB-9827-1 mature peptide coding sequence (LSKYGGECSRAHNTCTYRKGGKNQVVNCPSAANKKCKSDRHHCEYDEYHKRVDCQTPV; Synthetic peptide LB-9827-3B-21E10) | 1.25 ppm | – | 30 ppm | – |
